{"source": "patent US5360809A", "about": "“Imidazole compounds and their use as calcium channel blockers” (NeuroSearch A/S, priority 1992, dated 1994)"}
{"system": "voltage operated calcium channels (P- and L-type), rat synaptosomes", "experiment": "45Ca influx into rat synaptosomes under depolarized conditions", "assay_type": "biochemical, rat (male Wistar)", "conditions": "depolarization induced 45Ca uptake, rat cortex synaptosomes", "source_text": "A high influx of calcium from extracelluar compartments into neurons is seen after opening of voltage operated calcium channels. Such opening of calcium channels may be induced by depolarization of neuronal membranes. A crude synaptosome preparation contains small vesicles surrounded by neuronal membranes, and it is possible to study an opening of the voltage operated calcium channels in such a preparation. In the below described test influx of ^45 Ca into rat synaptosomes is studied under depolarized conditions. The effect of test substances on the depolarization induced calcium uptake can thus be studied.\nThe compounds of the present invention which potently block the calcium influx of up to 20 to 40% in this test are believed to be blockers of predominantly the P-type of calcium channels and the compounds of the present invention, which at somewhat higher concentrations block the calcium influx more completely or totally, are believed to be both P- and L-type calcium channel blockers, or predominantly L-type of calcium channel blockers.\nThe cerebral cortex from a male Wistar rat is homogenized in 20 ml ice cold 0.32M saccharose. In the following steps the temperature is kept at 0° C. to 4° C. The homogenate is centrifuged at 1,000×g for 10 minutes and the supernatant recentrifuged for 20 minutes at 18,000×g. The obtained pellet is resuspended in 0.32M saccharose (10 ml per g of original tissue). Aliquots of 0.05 ml of the hereby obtained synaptosome suspension are added to glass tubes containing 0.625 ml of a NaCl buffer (136 mM NaCl, 4 mM KCl, 0.35 mM CaCl2, 1.2 mM MgCl2, 20 mM Tris HCl, 12 mM glucose, pH 7.4) as well as 0.025 ml of different test substances in 48% ethanol. These tubes are pre-incubatedfor 30 minutes on ice and thereafter for 6 minutes at 37° C. ^45 Ca uptake is initiated by addition to above glass-tubes of 0.4 ml ^45 CACl2 (specific activity: 29-39 Ci/g; […]). […] The radioactivity on the filters are measured by liquid scintillation spectrometry. […]", "units": {"IC50": "µM"}}
{"smiles": "Fc1ccc2c(c1)ncn2-c1ccc(I)cc1", "note": "[1-(4-iodophenyl)-5-fluoro-benzimidazole]", "IC50": 7}
{"smiles": "Nc1cccc(-c2cccc(-n3cnc4cc(C(F)(F)F)ccc43)c2)c1", "note": "[1-[3-(3-aminophenyl)-phenyl]-5-trifluoromethyl-benzimidazole]", "IC50": 14}
{"smiles": "FC(F)(F)c1ccc2c(c1)ncn2-c1cccc(-c2ccsc2)c1", "note": "[1-[3-(3-thienyl)phenyl-5-trifluoromethyl]-benzimidazole]", "IC50": 3.4}
